Test results published in publication PMC9151520 (Archives of Toxicology, 2022).
“And” between values parts separate entries of the source, which are not always exact repeats. Identical values can stand only once. Like-named read-outs stand apart in the source and are kept apart here.

Key:
[1] = test system: p53 signaling (p53RE-bla HCT-116 cells)
[2] = test system: p53 signaling (p53RE-bla HCT-116 cells); assay: cells; assay type: cell-based
[3] = test system: p53 signaling (p53RE-bla HCT-116 cells); remark: listed apart in the source
[4] = Homo sapiens, HCT-116, read-out: p53 activation EC50, primary screening
[5] = Homo sapiens, HCT-116, read-out: p53 activation efficacy, primary screening
[6] = read-out: p53 activation EC50, cherry pick confirmation
[7] = read-out: p53 activation EC50, primary screening
[8] = read-out: Viability EC50, cherry pick confirmation
[9] = read-out: Viability EC50, primary screening
[10] = Homo sapiens, HCT-116, read-out: p53 activation EC50, cherry pick confirmation
[11] = Homo sapiens, HCT-116, read-out: p53 activation efficacy, cherry pick confirmation
[12] = Homo sapiens, HCT-116, read-out: EC50, p53 activation, primary screening
[13] = Homo sapiens, HCT-116, read-out: Efficacy, p53 activation, primary screening

C[C@]12CC[C@@H]3c4ccc(O)cc4CC[C@H]3[C@@H]1CC[C@H]2O [17alpha-Estradiol]
p53 activation EC50, cherry pick confirmation [1]: inactive
p53 activation EC50, primary screening [1]: inactive
p53 activation efficacy, cherry pick confirmation [1]: inactive
p53 activation efficacy, primary screening [1]: inactive
p53 activation EC50, cherry pick confirmation [2]: inactive
p53 activation efficacy, cherry pick confirmation [2]: inactive
EC50 [2, 4]: 12.3 µM
Emax [2, 5]: 54.4%
Viability EC50, cherry pick confirmation (p53RE-bla HCT-116 cells): inactive
Viability EC50, primary screening (p53RE-bla HCT-116 cells): inactive
Viability efficacy, cherry pick confirmation (p53RE-bla HCT-116 cells): inactive
Viability efficacy, primary screening (p53RE-bla HCT-116 cells): inactive
p53 activation EC50, cherry pick confirmation [3]: inactive
p53 activation EC50, primary screening [3]: inactive
p53 activation efficacy, cherry pick confirmation [3]: inactive
p53 activation efficacy, primary screening [3]: inactive

Tannic acid
p53 activation EC50, cherry pick confirmation [1]: inactive
p53 activation EC50, primary screening [1]: inactive
p53 activation efficacy, cherry pick confirmation [1]: inactive
p53 activation efficacy, primary screening [1]: inactive
p53 activation efficacy, cherry pick confirmation [2]: 97.9477
p53 activation efficacy, primary screening [2]: 41.698
EC50 [2, 6]: 7.77 µM
Viability EC50, cherry pick confirmation (p53RE-bla HCT-116 cells): inactive
Viability EC50, primary screening (p53RE-bla HCT-116 cells): inactive
Viability efficacy, cherry pick confirmation (p53RE-bla HCT-116 cells): inactive
Viability efficacy, primary screening (p53RE-bla HCT-116 cells): inactive
p53 activation EC50, cherry pick confirmation [3]: inactive
p53 activation EC50, primary screening [3]: inactive
p53 activation efficacy, cherry pick confirmation [3]: inactive
p53 activation efficacy, primary screening [3]: inactive

Demeton
p53 activation EC50, cherry pick confirmation [1]: inactive
p53 activation EC50, cherry pick confirmation [2]: inactive
p53 activation EC50, primary screening [2]: inactive
p53 activation efficacy, cherry pick confirmation [2]: inactive
p53 activation efficacy, primary screening [2]: inactive
Viability EC50, cherry pick confirmation (p53RE-bla HCT-116 cells): inactive
Viability EC50, primary screening (p53RE-bla HCT-116 cells): inactive
Viability efficacy, cherry pick confirmation (p53RE-bla HCT-116 cells): inactive
Viability efficacy, primary screening (p53RE-bla HCT-116 cells): inactive
EC50 [3]: 1.91 µM
EC50 [3, 6]: 1.7 µM

Nc1cc(Cl)c(-c2cc(Cl)c(N)cc2Cl)cc1Cl [2,2',5,5'-Tetrachlorobenzidine]
p53 activation EC50, cherry pick confirmation [1]: inactive
p53 activation EC50, primary screening [1]: inactive
p53 activation efficacy, cherry pick confirmation [1]: inactive
p53 activation efficacy, primary screening [1]: inactive
p53 activation efficacy, cherry pick confirmation [2]: 92.1083
p53 activation efficacy, primary screening [2]: 80.5693
EC50 [2, 6]: 36.2 µM
EC50 [2, 7]: 17.8 µM
Viability EC50, cherry pick confirmation (p53RE-bla HCT-116 cells): inactive
EC50 (p53RE-bla HCT-116 cells; [8]): 49.4 µM and 51.3 µM
EC50 (p53RE-bla HCT-116 cells; [9]): 49.5 µM (2×) and 37.5 µM
p53 activation EC50, cherry pick confirmation [3]: inactive
p53 activation EC50, primary screening [3]: inactive
p53 activation efficacy, cherry pick confirmation [3]: inactive
p53 activation efficacy, primary screening [3]: inactive

CC(=O)OC[C@H]1O[C@@H](n2ncc(=O)[nH]c2=O)[C@H](OC(C)=O)[C@@H]1OC(C)=O [6-Azaribine]
p53 activation EC50, cherry pick confirmation [1]: inactive
p53 activation EC50, primary screening [1]: inactive
p53 activation efficacy, cherry pick confirmation [1]: inactive
p53 activation efficacy, primary screening [1]: inactive
EC50 [2, 10]: 0.603 µM
EC50 [2, 4]: 0.432 µM
Emax [2, 11]: 79.7%
Emax [2, 5]: 60.2%
Viability EC50, cherry pick confirmation (p53RE-bla HCT-116 cells): inactive
Viability EC50, primary screening (p53RE-bla HCT-116 cells): inactive
Viability efficacy, cherry pick confirmation (p53RE-bla HCT-116 cells): inactive
Viability efficacy, primary screening (p53RE-bla HCT-116 cells): inactive
p53 activation EC50, cherry pick confirmation [3]: inactive
p53 activation EC50, primary screening [3]: inactive
p53 activation efficacy, cherry pick confirmation [3]: inactive
p53 activation efficacy, primary screening [3]: inactive

O=C(Nc1cccc(Cl)c1)OCC#CCCl [Barban]
p53 activation EC50, cherry pick confirmation [1]: inactive
p53 activation EC50, primary screening [1]: inactive
p53 activation efficacy, cherry pick confirmation [1]: inactive
p53 activation efficacy, primary screening [1]: inactive
EC50 [2, 10]: 32.3 µM
EC50 [2, 4]: 19 µM
Emax [2, 11]: 46.3%
Emax [2, 5]: 37.2%
Viability EC50, cherry pick confirmation (p53RE-bla HCT-116 cells): inactive
Viability EC50, primary screening (p53RE-bla HCT-116 cells): inactive
Viability efficacy, cherry pick confirmation (p53RE-bla HCT-116 cells): inactive
Viability efficacy, primary screening (p53RE-bla HCT-116 cells): inactive
p53 activation EC50, cherry pick confirmation [3]: inactive
p53 activation EC50, primary screening [3]: inactive
p53 activation efficacy, cherry pick confirmation [3]: inactive
p53 activation efficacy, primary screening [3]: inactive

O=[Se](O)O [Selenious acid]
EC50, p53 activation, cherry pick confirmation [1]: inactive
EC50, p53 activation, primary screening [1]: inactive
Efficacy, p53 activation, cherry pick confirmation [1]: inactive
Efficacy, p53 activation, primary screening [1]: inactive
EC50, p53 activation, cherry pick confirmation [2]: inactive
Efficacy, p53 activation, cherry pick confirmation [2]: inactive
Efficacy, p53 activation, primary screening [2]: 32.672
EC50 ([2]; read-out: EC50, p53 activation, primary screening): 45.1 µM
EC50, viability, cherry pick confirmation (p53RE-bla HCT-116 cells): inactive
EC50, viability, primary screening (p53RE-bla HCT-116 cells): inactive
EC50 (p53RE-bla HCT-116 cells; read-out: EC50, viability, cherry pick confirmation): 25.8 µM
EC50 (p53RE-bla HCT-116 cells; read-out: EC50, viability, primary screening): 42.9 µM
EC50, p53 activation, cherry pick confirmation [3]: inactive
EC50, p53 activation, primary screening [3]: inactive
Efficacy, p53 activation, cherry pick confirmation [3]: inactive
Efficacy, p53 activation, primary screening [3]: inactive

[F][Sn]([c]1ccccc1)([c]1ccccc1)[c]1ccccc1 [Triphenyltin fluoride]
p53 activation EC50, cherry pick confirmation [1]: inactive
p53 activation EC50, primary screening [1]: inactive
p53 activation efficacy, cherry pick confirmation [1]: inactive
p53 activation efficacy, primary screening [1]: inactive
p53 activation efficacy, cherry pick confirmation [2]: 73.0027
p53 activation efficacy, primary screening [2]: 39.9627
EC50 [2, 6]: 17.8 µM
EC50 [2, 7]: 7.69 µM
EC50 (p53RE-bla HCT-116 cells; [8]): 3.63 µM and 5.54 µM and 3.92 µM
p53 activation EC50, cherry pick confirmation [3]: inactive
p53 activation EC50, primary screening [3]: inactive
p53 activation efficacy, cherry pick confirmation [3]: inactive
p53 activation efficacy, primary screening [3]: inactive

COC1=CC(=O)C[C@@H](C)[C@]12Oc1c(Cl)c(OC)cc(OC)c1C2=O [Griseofulvin]
EC50, p53 activation, cherry pick confirmation [1]: inactive
EC50, p53 activation, primary screening [1]: inactive
Efficacy, p53 activation, cherry pick confirmation [1]: inactive
Efficacy, p53 activation, primary screening [1]: inactive
EC50, p53 activation, cherry pick confirmation [2]: inactive
Efficacy, p53 activation, cherry pick confirmation [2]: inactive
EC50 [2, 12]: 36.3 µM
Emax [2, 13]: 41.2%
EC50, viability, cherry pick confirmation (p53RE-bla HCT-116 cells): inactive
EC50, viability, primary screening (p53RE-bla HCT-116 cells): inactive
Efficacy, viability, cherry pick confirmation (p53RE-bla HCT-116 cells): inactive
Efficacy, viability, primary screening (p53RE-bla HCT-116 cells): inactive
EC50, p53 activation, cherry pick confirmation [3]: inactive
EC50, p53 activation, primary screening [3]: inactive
Efficacy, p53 activation, cherry pick confirmation [3]: inactive
Efficacy, p53 activation, primary screening [3]: inactive

CC(=O)Nc1ccn(C2COC(COC(=O)c3ccccc3)O2)c(=O)n1 (stereo not shown)
p53 activation EC50, cherry pick confirmation [1]: inactive
p53 activation EC50, primary screening [1]: inactive
p53 activation efficacy, cherry pick confirmation [1]: inactive
p53 activation efficacy, primary screening [1]: inactive
p53 activation efficacy, cherry pick confirmation [2]: 43.9867
p53 activation efficacy, primary screening [2]: 52.8473
EC50 [2, 6]: 9.43 µM
EC50 [2, 7]: 2.5 µM
Viability EC50, cherry pick confirmation (p53RE-bla HCT-116 cells): inactive
Viability EC50, primary screening (p53RE-bla HCT-116 cells): inactive
Viability efficacy, cherry pick confirmation (p53RE-bla HCT-116 cells): inactive
Viability efficacy, primary screening (p53RE-bla HCT-116 cells): inactive
p53 activation EC50, cherry pick confirmation [3]: inactive
p53 activation EC50, primary screening [3]: inactive
p53 activation efficacy, cherry pick confirmation [3]: inactive
p53 activation efficacy, primary screening [3]: inactive

Oc1ccc(C2(c3ccc(O)cc3)c3ccccc3-c3ccccc32)cc1 [4,4'-(9H-Fluorene-9,9-diyl)diphenol]
p53 activation EC50, cherry pick confirmation [1]: inactive
p53 activation EC50, primary screening [1]: inactive
p53 activation efficacy, cherry pick confirmation [1]: inactive
p53 activation efficacy, primary screening [1]: inactive
p53 activation efficacy, cherry pick confirmation [2]: 169.95
p53 activation efficacy, primary screening [2]: 157.361
EC50 [2, 6]: 44.8 µM
EC50 [2, 7]: 47.6 µM
Viability EC50, primary screening (p53RE-bla HCT-116 cells): inactive
EC50 (p53RE-bla HCT-116 cells; [8]): 34.3 µM and 32.4 µM and 45.8 µM
EC50 (p53RE-bla HCT-116 cells; [9]): 49.5 µM
p53 activation EC50, cherry pick confirmation [3]: inactive
p53 activation EC50, primary screening [3]: inactive
p53 activation efficacy, cherry pick confirmation [3]: inactive
p53 activation efficacy, primary screening [3]: inactive

O=C(Nc1cccc(C(F)(F)F)c1)c1cc(Br)cc(Br)c1O [Fluorosalan]
EC50, p53 activation, cherry pick confirmation [1]: inactive
EC50, p53 activation, primary screening [1]: inactive
Efficacy, p53 activation, cherry pick confirmation [1]: inactive
Efficacy, p53 activation, primary screening [1]: inactive
EC50 ([2]; Homo sapiens, HCT-116, read-out: EC50, p53 activation, cherry pick confirmation): 27.3 µM
EC50 [2, 12]: 17.6 µM
Emax ([2]; Homo sapiens, HCT-116, read-out: Efficacy, p53 activation, cherry pick confirmation): 47.5%
Emax [2, 13]: 33.3%
EC50, viability, cherry pick confirmation (p53RE-bla HCT-116 cells): inactive
EC50, viability, primary screening (p53RE-bla HCT-116 cells): inactive
Efficacy, viability, cherry pick confirmation (p53RE-bla HCT-116 cells): inactive
Efficacy, viability, primary screening (p53RE-bla HCT-116 cells): inactive
EC50, p53 activation, cherry pick confirmation [3]: inactive
EC50, p53 activation, primary screening [3]: inactive
Efficacy, p53 activation, cherry pick confirmation [3]: inactive
Efficacy, p53 activation, primary screening [3]: inactive
